The values that follow come from patent publication US20080125432A1 (Devgen NV, priority 2004, published 2008).

pIC50: −log10 of the molar value.

The first series addresses T1, human Kv4.3/KChIP2.2 potassium channel (Homo sapiens, UniProt Q9UK17).
T1 construct: expressed in transfected cells
T1 sequence (Q9UK17 1-655): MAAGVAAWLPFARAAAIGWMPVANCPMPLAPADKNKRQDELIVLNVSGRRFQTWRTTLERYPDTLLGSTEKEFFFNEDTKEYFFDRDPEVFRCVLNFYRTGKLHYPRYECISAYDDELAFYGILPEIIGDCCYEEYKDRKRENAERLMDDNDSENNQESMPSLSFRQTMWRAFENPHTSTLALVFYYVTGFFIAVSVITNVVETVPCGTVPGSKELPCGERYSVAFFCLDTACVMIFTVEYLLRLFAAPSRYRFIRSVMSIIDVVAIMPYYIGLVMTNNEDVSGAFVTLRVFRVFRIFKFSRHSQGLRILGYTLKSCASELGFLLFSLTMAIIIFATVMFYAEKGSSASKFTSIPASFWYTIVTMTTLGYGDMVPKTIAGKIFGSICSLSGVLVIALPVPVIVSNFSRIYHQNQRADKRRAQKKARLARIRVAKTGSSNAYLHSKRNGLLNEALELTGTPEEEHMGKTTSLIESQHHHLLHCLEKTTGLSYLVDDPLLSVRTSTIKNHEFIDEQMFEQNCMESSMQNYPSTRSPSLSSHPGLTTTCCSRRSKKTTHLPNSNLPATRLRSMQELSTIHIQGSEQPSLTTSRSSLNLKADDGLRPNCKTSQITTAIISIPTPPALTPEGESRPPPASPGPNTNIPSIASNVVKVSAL
Briefly: Whole cell patch clamp, CHO-K1 cells stably expressing human Kv4.3/KChIP2.2. The class given is cell-based. The note with it: CHO-K1; remaining current measured after application of the compound and relative to the blank; read-out: Kv4.3 charge in %. On the procedure:
For this experiment, a recombinant CHO-K1 cell line stably expressing the human Kv4.3/KChIP2.2 potassium channel was used. The cells used for this experiment were kept in continuous culture under standard conditions (37° C., air supplemented with 7% CO2). The CHO-K1 Kv4.3/KChIP2.2 cells were kept in Iscove s modified DMEM (Dulbecco's Modified Eagle's Medium) medium (IMEM) supplemented with 100 U/ml Penicillin, 100 μg/ml Streptomycin, 7% fetal calf serum (FCS), 2.5 μg/ml amphotericin, 400 μg/ml G418, and 400 μg/ml Zeocin™. Cells were passed every 3-4 days after detachment using a Trypsin solution. The quality of the cultured cells was guaranteed by vitality and contamination tests. The culture of the cells was performed as described in protocol D hereunder.
10 mM stock solutions of the compounds were prepared in DMSO. Solutions of the compounds were prepared by dilution of stock solution in bath solution. If the required stock solution volume was theoretically below 1 μl, bath solutions with higher compound concentration were used for dilution. The maximal DMSO concentration during experiments was 0.1% (v/v).
Activity of the human Kv4.3/KChIP2.2 channel was investigated using the patch clamp technique in its whole cell mode. This means that the current needed for clamping the whole cell expressing the K^+-channel protein to a specific potential was measured. Experiments were performed using a patch clamp set-up. Technical equipment needed for manipulation of the cells was placed on a vibration-isolated table and shielded with a Faraday cage to minimize electrical noise. The amplifier and control system were placed in a rack outside the Faraday cage. The system consisted of an EPC9 or EPC10 patch clamp amplifier (HEKA, Lambrecht, Germany), and the perfusion system DADVC8 (ALA Scientific, New York, USA) controlled by the Pulse software package (HEKA, Lambrecht, Germany) installed on a personal computer. The pipettes used for patch clamping were made of borosilicate glass.
Measurements were performed at room temperature (20-25° C.). In each experiment (i.e. each cell) only one concentration of the compounds was investigated no cumulative dosages were performed. Each cell acted as its own control. […]
Between voltage pulses the cell was clamped to a holding potential of −80 mV (inside). The test protocols are illustrated in FIG. 1 and Table 4. The test protocol illustrated in FIG. 1a was used to characterize the properties of the Kv4.3/KChIP2.2 channel and to check the quality of the individual patch clamp experiment (voltage control). […] Each test protocol consisted of 4 segments.
After the whole cell configuration was established a current-voltage curve (IV activation 1; FIG. 1a and Table 4a) was recorded under constant superfusion with bath solution to check for Kv4.3/KChIP2.2 expression and the quality of the individual patch clamp experiment (voltage control). Subsequently, 14 test pulses (series 1; FIG. 1b and Table 4b) were applied at 0.1 Hz under constant superfusion with bath solution. The protocol was initiated by a voltage jump to 100 mV (400 ms) to achieve full inactivation. Then the Kv4.3/KChIP2.2 channels were transferred to the open state by depolarization to +40 mV for 300 milliseconds (activation). Only cells generating current amplitudes between 1 nA and 50 nA were used for the experimental procedure. No or negligible rundown was observed.
Then, 36 test pulses (series 2) were applied at 0.1 Hz under constant superfusion with the compound dissolved in bath solution. Finally, another current-voltage curve was recorded in the presence of the compounds (IV activation 2).
Three different types of analysis were used: Inhibition at the peak current, inhibition of translocated charge and inhibition 75 ms after activation at +40 mV (sustained current). The peak current/charge/current at 75 ms was determined using the online analysis tool of the HEKA pulse software package. […]
(The patch-clamp technique gives a direct electrical read-out from membranes.)
`COc1ccccc1Nc1nc(C)c(C(=O)N[C@H]2CCC[C@@H]2OCc2ccccc2)o1` [Compound 210, 2-(2-methoxy-phenylamino)-4-methyl-oxazole-5-carboxylic acid ((1S,2S)-2-benzyloxycyclopent-1-yl) amide]: the remaining activity at 1 µM amounted to 86%.

The series is the same for the next values; noted with them: CHO-K1; remaining peak height measured after application of the compound and relative to the blank; read-out: Kv4.3 peak in %.
On to `COc1ccccc1Nc1nc(C)c(C(=O)N[C@H]2CCC[C@@H]2OCc2ccccc2)o1` [Compound 210, 2-(2-methoxy-phenylamino)-4-methyl-oxazole-5-carboxylic acid ((1S,2S)-2-benzyloxycyclopent-1-yl) amide], for which the remaining activity at 1 µM was 99%.

Staying with this series, now noted: Kv4.3 mediated current, charge; patch clamp; read-out: Kv4.3 charge IC50.
As to `Cc1nc(Nc2ccc(F)cc2)sc1C(=O)N[C@H]1CCC[C@@H]1OCc1ccccc1` [Compound 67, 2-(4-fluoro-phenylamino)-4-methyl-thiazole-5-carboxylic acid (1S,2S)-2-(benzyloxycyclopent-1-yl) amide], the pIC50 is 5.71.

Regarding `Cc1ccccc1Nc1nc(C)c(C(=O)N[C@@H](C)c2ccc3ccccc3c2)s1` [Compound 32], the pIC50 is 5.59.

For the compound `Cc1nc(N(C)c2ccc(Br)cc2)sc1C(=O)N[C@@H]1CCC[C@H]1OCc1ccccc1` [Compound 29, 2-(4-bromo-phenyl-methylamino)-4-methyl-thiazole-5-carboxylic acid (1R,2R)-2-(benzyloxycyclopent-1-yl) amide], the pIC50 was 5.67.

With `Cc1nc(Nc2ccc(Br)cc2)sc1C(=O)NCc1ccccn1` [Compound 59, 2-(4-bromo-phenylamino)-4-methyl-thiazole-5-carboxylic acid (pyridin-2-ylmethyl)-amide], the pIC50 is 5.51.

For the compound `Cc1nc(Nc2ccc(Br)cc2)sc1C(=O)NCc1cccnc1` [Compound 58, 2-(4-bromo-phenylamino)-4-methyl-thiazole-5-carboxylic acid (pyridin-3-ylmethyl)-amide], the pIC50 is 5.36.

Consider “2-(4-bromo-phenylamino)-4-methyl-thiazole-5-carboxylic acid naphth-1-yl methylamide [Compound 27]”, for which the negative-log IC50 (pIC50) was 5.56.

Consider `COc1ccccc1Nc1nc(C)c(C(=O)N[C@H](C)c2ccc3ccccc3c2)s1` [Compound 53, 2-(2-methoxy-phenylamino)-4-methyl-thiazole-5-carboxylic acid (R)-1-(2-naphtalen-2-yl-ethyl)-amide], for which the pIC50 was 5.40.

With `CCCN(Cc1ccc([N+](=O)[O-])cc1)C(=O)c1sc(Nc2ccc(Br)cc2)nc1C` [Compound 28, 2-(4-bromo-phenylamino)-4-methyl-thiazole-5-carboxylic acid (4-nitro-benzyl)-propyl-amide], the pIC50 is 5.97.

For the compound `C[C@@H](NC(=O)c1csc(Nc2ccccc2)n1)c1ccc([N+](=O)[O-])cc1` [Compound 47, 2-phenylamino-thiazole-4-carboxylic acid 1-((R)-4-nitrophenyl-ethyl)-amide], the pIC50 is 5.74.

`COc1cccc([C@@H](C)NC(=O)c2sc(Nc3ccc(Br)cc3)nc2C)c1` [Compound 21, 2-(4-bromo-phenylamino)-4-methyl-thiazole-5-carboxylic acid (R)-1-(3-methoxyphenyl)ethyl amide]: the negative logarithm of the IC50 (pIC50) is 5.90.

Consider `Cc1nc(Nc2ccc(Br)cc2)sc1C(=O)N[C@H]1CCC[C@@H]1OCc1ccccc1` [Compound 26, 2-(4-bromo-phenylamino)-4-methyl-thiazole-5-carboxylic acid (1S,2S)-2-(benzyloxycyclopent-1-yl) amide], for which the pIC50 was 5.66.

Take `COc1ccc(CNC(=O)c2sc(Nc3ccc(Br)cc3)nc2C)cc1OC` [Compound 61, 2-(4-bromo-phenylamino)-4-methyl-thiazole-5-carboxylic acid 3,4-dimethoxy-benzylamide]: the pIC50 is 5.82.

Regarding `Cc1nc(Nc2ccc(Br)cc2)sc1C(=O)NCc1ccncc1` [Compound 57, 2-(4-bromo-phenylamino)-4-methyl-thiazole-5-carboxylic acid (pyridin-4-ylmethyl)-amide], the pIC50 was 4.95.

Regarding `COc1ccc(Cl)cc1Nc1nc(C)c(C(=O)N[C@@H]2CCC[C@H]2OCc2ccccc2)s1` [Compound 35, 2-(5-chloro-2-methoxy-phenylamino)-4-methyl-thiazole-5-carboxylic acid (1R,2R)-2-(benzyloxycyclopent-1-yl) amide], the negative logarithm of the IC50 (pIC50) was 5.51.

Test system in the next series: not given
Assay: not given
Conditions: not given
Take `COc1ccccc1Nc1nc(C)c(C(=O)N[C@@H](C(=O)O)c2ccccc2)s1` [Compound 212, (R)-{[2-(2-methoxy-phenylamino)-4-methyl-thiazole-5-carbonyl]-amino}-phenyl-aceticacid]: the melting point was 258.6 to 262.9 °C.

As for `Cc1nc(NC(=O)c2ccccc2)sc1C(=O)N[C@H]1CCC[C@@H]1OCc1ccccc1` [Compound 179, 2-benzoylamino-4-methyl-thiazole-5-carboxylic acid ((1S,2S)-2-benzyloxycyclopent-1-yl) amide], the melting point is 97.4 to 110.6 °C.

Turning to `COc1ccccc1Nc1nc(C)c(C(=O)NCc2ccc(C(=O)N(C)C)cc2)s1` [Compound 137, 2-(2-methoxy-phenylamino)-4-methyl-thiazole-5-carboxylic acid 4-dimethylcarbamoyl-benzylamide], the melting point was in the range of 219.1 to 226.7 °C.

Take `Cc1nc(Nc2ccc(Cl)cc2)sc1C(=O)NNc1ccc([N+](=O)[O-])cc1[N+](=O)[O-]`: the melting point is 138 to 164.7 °C.

Compound `Cc1nc(Oc2ccccc2)sc1C(=O)N[C@H]1CCC[C@@H]1OCc1ccccc1` [Compound 80, 4-methyl-2-phenoxy-thiazole-5-carboxylicacid ((1S,2S)-2-benzyloxycyclopent-1-yl)amide] yielded a melting point of 93.4 to 95.8 °C.

`COc1ccccc1Nc1nc(C)c(C(=O)NCc2cccc(-c3ccccc3)c2)s1` [Compound 144, 2-(2-methoxy-phenylamino)-4-methyl-thiazole-5-carboxylic acid (biphenyl-3-ylmethyl)-amide] registered a melting point of 126.6 to 128.3 °C.

`COc1ccccc1Nc1nc(C)c(C(=O)NCc2ccc(F)c(C(F)(F)F)c2)o1` [Compound 223, 2-(2-methoxy-phenylamino)-4-methyl-oxazole-5-carboxylic acid 4-fluoro-3-trifluoromethyl-benzylamide] gave a melting point of 71.6 to 84.3 °C.

As to `COc1ccccc1Nc1nc(C)c(C(=O)NCc2ccc(-c3ccccc3)cc2)s1` [Compound 145, 2-(2-methoxy-phenylamino)-4-methyl-thiazole-5-carboxylic acid (biphenyl-4-ylmethyl)-amide], the melting point lay in the range of 189.6 to 191.2 °C.

Compound `COc1ccccc1Nc1nc(C)c(C(=O)NCC2COc3ccccc3O2)s1` (stereo not shown) [Compound 217, 2-(2-methoxy-phenylamino)-4-methyl-thiazole-5-carboxylic acid (2,3-dihydro-benzo[1,4]dioxin-2-ylmethyl) amide] returned a melting point of 138.3 to 158.2 °C.

The pIC50 is the negative decadic logarithm of the IC50, by convention in mol/L. Broadly, the melting point is the temperature of the solid-liquid transition.
